{"source": "patent US9050341B2", "about": "“Methods of treating drug resistant and other tumors by administering 6,7-dialkoxy quinazoline derivatives” (NATCO PHARMA LIMITED, priority 2009, dated 2015)", "test_in_all_cases": "KinomeScan kinase profiling", "assay_type_in_all_cases": "binding", "key": {"NEK6": {"target": "T1, NEK6 (Homo sapiens, UniProt Q9HC98)", "T1 construct": "host or cells: T7 phage in E. coli host derived from BL21", "in_short": "(§1)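 Kinases were expressed as T7 phage fusions in a BL21-derived E. coli host and the cleared lysates were used. Ligand beads were blocked with biotin and buffer (1% BSA, 0.05% Tween 20, 1 mM DTT). Compounds came from 40× DMSO stocks, and phage in the eluates was titred by qPCR.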"}, "PIK3CD": {"target": "T2, PIK3CD (Homo sapiens, UniProt O00329)", "T2 construct": "purchased Ambit Biosciences Corp (KinomeScan); host or cells: E. coli host derived from BL21, infected with T7 phage", "in_short": "as §1"}, "INSR": {"target": "T3, INSR (Homo sapiens, UniProt P06213)", "T3 construct": "host or cells: T7 phage in E. coli host derived from BL21", "in_short": "as §1"}, "TRKB": {"target": "T4, TRKB (Homo sapiens, UniProt Q16620)", "T4 construct": "purchased Ambit Biosciences Corp (KinomeScan); host or cells: E. coli host derived from the BL21 strain (T7 phage lysate)", "T4 sequence (Q16620 32-822)": "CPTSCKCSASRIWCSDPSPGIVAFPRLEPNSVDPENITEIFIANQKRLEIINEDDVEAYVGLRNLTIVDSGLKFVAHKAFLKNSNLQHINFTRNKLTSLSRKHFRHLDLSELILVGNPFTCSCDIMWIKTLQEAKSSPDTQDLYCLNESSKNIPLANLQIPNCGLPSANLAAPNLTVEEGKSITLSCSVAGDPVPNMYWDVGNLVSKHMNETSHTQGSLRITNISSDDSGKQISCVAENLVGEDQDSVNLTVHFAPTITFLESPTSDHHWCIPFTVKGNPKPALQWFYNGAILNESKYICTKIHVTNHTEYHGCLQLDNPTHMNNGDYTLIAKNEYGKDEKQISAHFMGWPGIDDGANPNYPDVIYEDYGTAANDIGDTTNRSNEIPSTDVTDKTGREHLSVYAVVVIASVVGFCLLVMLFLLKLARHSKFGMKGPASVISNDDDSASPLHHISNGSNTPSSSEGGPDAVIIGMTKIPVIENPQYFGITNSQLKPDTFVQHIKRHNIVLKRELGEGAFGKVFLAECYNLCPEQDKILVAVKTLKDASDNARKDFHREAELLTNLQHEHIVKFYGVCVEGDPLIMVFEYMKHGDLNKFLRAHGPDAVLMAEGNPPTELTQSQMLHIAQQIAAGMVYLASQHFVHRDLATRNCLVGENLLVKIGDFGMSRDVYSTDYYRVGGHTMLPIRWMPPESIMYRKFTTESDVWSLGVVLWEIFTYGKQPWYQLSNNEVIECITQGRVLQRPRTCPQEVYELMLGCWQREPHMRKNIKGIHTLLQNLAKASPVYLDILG", "in_short": "as §1"}, "[1]": {"target": "T5, RPS6KA6 (Kin.Dom.-2-C-terminal) (Homo sapiens, UniProt Q9UK32)", "T5 construct": "RPS6KA6 (Kin.Dom.-2-C-terminal); host or cells: E. coli host derived from the BL21 strain, T7 phage lysate", "T5 sequence (Q9UK32 426-683 limits assumed)": "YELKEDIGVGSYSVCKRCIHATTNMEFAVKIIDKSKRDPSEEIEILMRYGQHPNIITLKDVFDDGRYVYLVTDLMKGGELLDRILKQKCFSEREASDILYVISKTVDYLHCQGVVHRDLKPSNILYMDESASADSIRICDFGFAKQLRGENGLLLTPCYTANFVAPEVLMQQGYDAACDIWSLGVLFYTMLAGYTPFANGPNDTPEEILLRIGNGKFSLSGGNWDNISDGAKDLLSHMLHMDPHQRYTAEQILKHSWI", "in_short": "as §1"}, "LCK": {"target": "T6, LCK (Homo sapiens, UniProt P06239)", "T6 construct": "host or cells: T7 phage in E. coli host derived from BL21", "in_short": "as §1"}, "TAOK3": {"target": "T7, TAOK3 (Homo sapiens, UniProt Q9H2K8)", "T7 construct": "host or cells: E. coli host derived from the BL21 strain, T7 phage lysate", "in_short": "as §1"}, "ABL1 (F317L)": {"target": "T8, ABL1 (F317L) (Homo sapiens, UniProt P00519, F317L)", "T8 construct": "host or cells: E. coli host derived from BL21 (T7 phage lysate)", "T8 sequence (P00519 whole entry F317L)": "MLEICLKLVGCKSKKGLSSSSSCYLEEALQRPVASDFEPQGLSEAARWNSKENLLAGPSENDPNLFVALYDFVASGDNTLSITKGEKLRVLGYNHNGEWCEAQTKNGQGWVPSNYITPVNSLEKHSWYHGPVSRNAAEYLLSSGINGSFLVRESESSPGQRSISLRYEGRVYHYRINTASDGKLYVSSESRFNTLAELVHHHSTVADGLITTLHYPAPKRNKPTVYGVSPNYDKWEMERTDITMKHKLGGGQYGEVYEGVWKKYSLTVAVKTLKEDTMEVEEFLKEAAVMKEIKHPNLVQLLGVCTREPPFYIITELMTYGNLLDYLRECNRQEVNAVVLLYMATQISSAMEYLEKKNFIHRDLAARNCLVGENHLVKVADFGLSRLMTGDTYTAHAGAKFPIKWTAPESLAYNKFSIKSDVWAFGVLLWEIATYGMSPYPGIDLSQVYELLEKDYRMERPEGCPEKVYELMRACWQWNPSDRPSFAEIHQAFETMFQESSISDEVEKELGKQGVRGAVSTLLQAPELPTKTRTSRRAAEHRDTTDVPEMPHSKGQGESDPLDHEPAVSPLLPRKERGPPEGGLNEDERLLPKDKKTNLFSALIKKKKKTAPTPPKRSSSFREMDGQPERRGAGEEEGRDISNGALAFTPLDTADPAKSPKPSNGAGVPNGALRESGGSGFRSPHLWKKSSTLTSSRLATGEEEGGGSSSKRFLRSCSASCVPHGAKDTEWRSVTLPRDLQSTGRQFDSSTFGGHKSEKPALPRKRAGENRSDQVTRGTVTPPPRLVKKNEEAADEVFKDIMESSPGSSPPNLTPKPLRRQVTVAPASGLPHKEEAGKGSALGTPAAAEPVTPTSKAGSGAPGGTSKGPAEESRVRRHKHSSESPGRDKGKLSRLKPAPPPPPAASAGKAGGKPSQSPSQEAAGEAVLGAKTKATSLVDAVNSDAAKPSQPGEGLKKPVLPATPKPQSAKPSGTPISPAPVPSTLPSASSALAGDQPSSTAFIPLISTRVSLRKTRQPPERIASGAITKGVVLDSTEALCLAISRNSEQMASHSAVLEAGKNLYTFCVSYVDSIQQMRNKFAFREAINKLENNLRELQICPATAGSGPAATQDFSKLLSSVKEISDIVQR", "in_short": "as §1"}, "MAP4K4": {"target": "T9, MAP4K4 (Homo sapiens, UniProt O95819)", "T9 construct": "host or cells: E. coli derived from BL21, infected with T7 phage", "in_short": "as §1"}, "EPHA7": {"target": "T10, EPHA7 (Homo sapiens, UniProt Q15375)", "T10 construct": "host or cells: E. coli host derived from BL21, T7 phage lysate", "T10 sequence (Q15375 28-998)": "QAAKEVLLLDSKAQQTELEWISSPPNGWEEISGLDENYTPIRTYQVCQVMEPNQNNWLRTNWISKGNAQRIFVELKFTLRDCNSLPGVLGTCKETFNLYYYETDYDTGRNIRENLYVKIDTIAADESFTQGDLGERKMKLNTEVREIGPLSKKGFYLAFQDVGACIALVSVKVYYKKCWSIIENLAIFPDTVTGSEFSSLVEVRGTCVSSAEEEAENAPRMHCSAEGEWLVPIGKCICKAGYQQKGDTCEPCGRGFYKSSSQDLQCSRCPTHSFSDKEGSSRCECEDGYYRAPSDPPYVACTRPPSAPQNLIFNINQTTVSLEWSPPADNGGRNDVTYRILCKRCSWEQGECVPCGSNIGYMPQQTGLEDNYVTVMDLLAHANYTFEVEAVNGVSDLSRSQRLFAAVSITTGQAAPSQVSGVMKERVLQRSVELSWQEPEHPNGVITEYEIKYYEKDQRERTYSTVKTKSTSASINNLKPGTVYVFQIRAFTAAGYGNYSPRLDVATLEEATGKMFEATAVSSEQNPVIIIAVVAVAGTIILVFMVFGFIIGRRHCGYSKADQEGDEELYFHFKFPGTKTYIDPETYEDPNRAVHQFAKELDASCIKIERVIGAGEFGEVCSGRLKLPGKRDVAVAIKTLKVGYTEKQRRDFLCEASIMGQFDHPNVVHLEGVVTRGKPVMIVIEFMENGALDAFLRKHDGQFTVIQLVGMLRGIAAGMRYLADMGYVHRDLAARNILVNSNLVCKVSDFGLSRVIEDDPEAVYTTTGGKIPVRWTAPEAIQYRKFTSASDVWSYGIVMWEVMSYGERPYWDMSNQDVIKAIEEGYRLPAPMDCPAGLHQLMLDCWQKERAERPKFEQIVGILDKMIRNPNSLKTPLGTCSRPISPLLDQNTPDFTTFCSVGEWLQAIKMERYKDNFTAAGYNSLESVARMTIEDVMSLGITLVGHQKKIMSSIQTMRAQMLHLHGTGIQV", "in_short": "as §1"}, "AMPK-alpha1": {"target": "T11, AMPK-alpha1 (Homo sapiens, UniProt Q13131)", "T11 construct": "host or cells: E. coli host derived from BL21 (T7 phage lysate)", "in_short": "as §1"}, "TGFBR2": {"target": "T12, TGFBR2 (Homo sapiens, UniProt P37173)", "T12 construct": "host or cells: E. coli host derived from the BL21 strain, T7 phage lysate", "T12 sequence (P37173 23-567)": "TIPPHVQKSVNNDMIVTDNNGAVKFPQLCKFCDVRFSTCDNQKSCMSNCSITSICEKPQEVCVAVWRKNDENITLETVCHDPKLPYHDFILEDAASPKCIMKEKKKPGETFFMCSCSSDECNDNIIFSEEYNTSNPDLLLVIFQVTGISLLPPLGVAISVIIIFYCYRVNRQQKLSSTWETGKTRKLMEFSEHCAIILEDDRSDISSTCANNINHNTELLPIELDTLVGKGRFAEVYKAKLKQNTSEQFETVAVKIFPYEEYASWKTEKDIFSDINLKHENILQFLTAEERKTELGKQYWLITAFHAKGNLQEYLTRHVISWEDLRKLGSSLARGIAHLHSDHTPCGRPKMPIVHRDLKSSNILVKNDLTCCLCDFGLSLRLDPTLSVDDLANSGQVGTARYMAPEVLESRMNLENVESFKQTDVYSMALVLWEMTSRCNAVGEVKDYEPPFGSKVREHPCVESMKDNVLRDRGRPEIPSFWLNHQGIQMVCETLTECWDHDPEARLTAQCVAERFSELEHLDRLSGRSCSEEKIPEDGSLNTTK", "in_short": "as §1"}, "FLT3 (K663Q)": {"target": "T13, FLT3 (K663Q) (Homo sapiens, UniProt P36888, K663Q)", "T13 construct": "host or cells: E. coli host derived from BL21, infected with T7 phage", "in_short": "as §1"}, "RET (V804M)": {"target": "T14, RET (V804M) (Homo sapiens, UniProt P07949, V804M)", "T14 construct": "host or cells: E. coli host derived from BL21, T7 phage lysate", "in_short": "as §1"}, "LTK": {"target": "T15, LTK (Homo sapiens, UniProt P29376)", "T15 construct": "host or cells: E. coli derived from BL21, infected with T7 phage", "T15 sequence (P29376 17-864)": "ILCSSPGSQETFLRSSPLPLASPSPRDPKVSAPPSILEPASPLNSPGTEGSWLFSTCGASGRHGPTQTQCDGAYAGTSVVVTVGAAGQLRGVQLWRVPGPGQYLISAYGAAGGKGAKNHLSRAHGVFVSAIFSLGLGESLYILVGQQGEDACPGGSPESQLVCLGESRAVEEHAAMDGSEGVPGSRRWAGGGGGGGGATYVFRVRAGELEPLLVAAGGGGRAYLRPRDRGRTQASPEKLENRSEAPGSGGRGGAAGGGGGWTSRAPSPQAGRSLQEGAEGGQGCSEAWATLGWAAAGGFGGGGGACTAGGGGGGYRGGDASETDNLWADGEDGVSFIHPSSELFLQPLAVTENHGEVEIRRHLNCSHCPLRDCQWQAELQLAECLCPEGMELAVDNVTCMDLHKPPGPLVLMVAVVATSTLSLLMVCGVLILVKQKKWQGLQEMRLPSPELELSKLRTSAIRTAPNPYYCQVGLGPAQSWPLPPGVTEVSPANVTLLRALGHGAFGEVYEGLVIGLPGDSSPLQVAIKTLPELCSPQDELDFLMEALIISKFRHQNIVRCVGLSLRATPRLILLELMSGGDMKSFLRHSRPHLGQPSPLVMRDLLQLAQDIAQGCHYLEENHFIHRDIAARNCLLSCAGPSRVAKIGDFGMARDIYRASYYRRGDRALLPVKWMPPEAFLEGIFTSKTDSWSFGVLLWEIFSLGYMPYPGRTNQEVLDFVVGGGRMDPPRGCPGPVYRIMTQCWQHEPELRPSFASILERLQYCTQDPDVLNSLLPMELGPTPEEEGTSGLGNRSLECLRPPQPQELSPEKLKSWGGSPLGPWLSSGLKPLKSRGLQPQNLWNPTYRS", "in_short": "as §1"}, "LYN": {"target": "T16, LYN (Homo sapiens, UniProt P07948)", "T16 construct": "host or cells: E. coli derived from BL21, infected with T7 phage", "in_short": "as §1"}, "EGFR (G719C)": {"target": "T17, EGFR (G719C) (Homo sapiens, UniProt P00533, G719C)", "T17 construct": "purchased Ambit Biosciences Corp (KinomeScan); host or cells: T7 phage in E. coli host derived from BL21", "in_short": "as §1"}, "RAF1": {"target": "T18, RAF1 (Homo sapiens, UniProt P04049)", "T18 construct": "host or cells: E. coli host derived from BL21, T7 phage lysate", "in_short": "as §1"}, "SNARK": {"target": "T19, SNARK (Homo sapiens, UniProt Q9H093)", "T19 construct": "host or cells: E. coli host derived from the BL21 strain, T7 phage lysate", "in_short": "as §1"}, "BRAF (V600E)": {"target": "T20, BRAF (V600E) (Homo sapiens, UniProt P15056, V600E)", "T20 construct": "purchased Ambit Biosciences Corp (KinomeScan); host or cells: E. coli host derived from the BL21 strain, T7 phage", "in_short": "as §1"}, "[2]": {"target": "T21, JAK1 (JH2domain-pseudokinase) (Homo sapiens, UniProt P23458)", "T21 construct": "JAK1 (JH2domain-pseudokinase); host or cells: T7 phage in E. coli host derived from BL21", "T21 sequence (P23458 583-855 limits assumed)": "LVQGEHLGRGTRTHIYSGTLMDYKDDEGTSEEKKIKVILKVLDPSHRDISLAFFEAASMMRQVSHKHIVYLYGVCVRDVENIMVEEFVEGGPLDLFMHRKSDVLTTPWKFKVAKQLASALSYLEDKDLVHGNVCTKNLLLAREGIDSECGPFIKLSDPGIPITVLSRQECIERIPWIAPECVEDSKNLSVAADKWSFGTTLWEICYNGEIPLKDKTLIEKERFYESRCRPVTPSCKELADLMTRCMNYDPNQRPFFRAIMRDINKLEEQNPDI", "in_short": "as §1"}}}
{"molecule": "C#Cc1cccc(Nc2ncnc3cc(OC)c(OCCCN4CCOCC4)cc23)c1", "note": "[NRC-2694, N-(3-ethylnylphenyl)-7-methoxy-6-[3-(4-morpholinyl)propoxy]-4-quinazolinamine]", "values": [{"measurement": "% Ctrl @ 10000 nM", "setting": "NEK6", "value": 94, "unit": "% Ctrl"}, {"measurement": "% Ctrl @ 10000 nM", "setting": "PIK3CD", "value": 89, "unit": "% Ctrl"}, {"measurement": "% Ctrl @ 10000 nM", "setting": "INSR", "value": 90, "unit": "% Ctrl"}, {"measurement": "% Ctrl @ 10000 nM", "setting": "TRKB", "value": 73, "unit": "% Ctrl"}, {"measurement": "% Ctrl @ 10000 nM", "setting": "[1]", "value": 55, "unit": "% Ctrl"}, {"measurement": "% Ctrl @ 10000 nM", "setting": "LCK", "value": 1.5, "unit": "% Ctrl"}, {"measurement": "% Ctrl @ 10000 nM", "setting": "TAOK3", "value": 76, "unit": "% Ctrl"}, {"measurement": "% Ctrl @ 10000 nM", "setting": "ABL1 (F317L)", "value": 33, "unit": "% Ctrl"}, {"measurement": "% Ctrl @ 10000 nM", "setting": "MAP4K4", "value": 20, "unit": "% Ctrl"}, {"measurement": "% Ctrl @ 10000 nM", "setting": "EPHA7", "value": 70, "unit": "% Ctrl"}, {"measurement": "% Ctrl @ 10000 nM", "setting": "AMPK-alpha1", "value": 50, "unit": "% Ctrl"}, {"measurement": "% Ctrl @ 10000 nM", "setting": "TGFBR2", "value": 86, "unit": "% Ctrl"}, {"measurement": "% Ctrl @ 10000 nM", "setting": "FLT3 (K663Q)", "value": 56, "unit": "% Ctrl"}, {"measurement": "% Ctrl @ 10000 nM", "setting": "RET (V804M)", "value": 100, "unit": "% Ctrl"}, {"measurement": "% Ctrl @ 10000 nM", "setting": "LTK", "value": 3.8, "unit": "% Ctrl"}, {"measurement": "% Ctrl @ 10000 nM", "setting": "LYN", "value": 13, "unit": "% Ctrl"}, {"measurement": "% Ctrl @ 10000 nM", "setting": "EGFR (G719C)", "value": 0, "unit": "% Ctrl"}, {"measurement": "% Ctrl @ 10000 nM", "setting": "RAF1", "value": 100, "unit": "% Ctrl"}, {"measurement": "% Ctrl @ 10000 nM", "setting": "SNARK", "value": 19, "unit": "% Ctrl"}, {"measurement": "% Ctrl @ 10000 nM", "setting": "BRAF (V600E)", "value": 73, "unit": "% Ctrl"}, {"measurement": "% Ctrl @ 10000 nM", "setting": "[2]", "value": 81, "unit": "% Ctrl"}]}
